Experimental data taken from PubChem BioAssay AID1963974 (Molecular Pharmacology Branch, DTP, NCI, 2024).

System: 648629-189-R-J1-PDC spheroids with HUVEC/MSC, viability
Test: Anticancer human tumor 648629-189-R-J1-PDC patient-derived bladder carcinoma cell line growth inhibition [PI3K]
Details: for IC50: curve of first compound; for viability, T/C: stronger effect = lower value
Description: Combinatorial screen of targeted agents with the PI3K inhibitors inavolisib, alpelisib, duvelisib, and copanlisib in multi-cell type tumor spheroids
A high-throughput screen of multi-cell type tumor spheroids was designed to identify active combinations of targeted small molecules and PI3K pathway inhibitors. Complex spheroids include a stromal component modeled by human endothelial cells (HUVEC) and fibroblasts modeled by human mesenchymal stem cells (MSCs). The concentration ranges selected for each drug and investigational agent were based upon clinically achievable concentrations if the clinical Cmax of the agent was known.
Compounds. The drugs and investigational agents: inavolisib (NSC800729), alpelisib (NSC765974), duvelisib (NSC772469), copanlisib (NSC816437), ipatasertib (NSC767898), afuresertib (NSC778305), talazoparib (NSC767125), sapanisertib (NSC764658), selumetinib (NSC741078), tovorafenib (DAY101, NSC766906), vemurafenib (NSC761431), ravoxertinib (NSC781343), sotorasib (NSC818433), MRTX1133 (NSC 836407), abemaciclib (NSC 768073), palbociclib (NSC758247), venetoclax (NSC 766270), SY5609 (NSC837396), enzalutamide (NSC755605), and darolutamide (NSC825331), were obtained from the National Cancer Institute (NCI) Developmental Therapeutics Program Chemical Repository. The FDA-approved anticancer drug set is available from the NCI Developmental Therapeutics Program. […] The stock solutions were prepared in dimethyl sulfoxide (DMSO, Sigma-Aldrich, St. Louis, MO, cat. D2650) at 800-fold the tested concentration and stored at -70 degrees C prior to their use. All drugs and investigational agents were tested over a range starting from a high concentration at or near the clinical Cmax and decreasing in half-log increments. If the clinical Cmax for an agent had not been determined, the highest concentration tested was 10 microM.
Cell Culture. All cells were maintained in an incubator at 37 degrees C and 5% CO2 with 95% humidity. The PDC lines were cultured according to standard operating procedures established by the NCI PDMR (https://pdmr.cancer.gov/sops/default.htm). All PDCs were thawed and cultured in Matrigel-coated flasks prepared with a working solution of 1X Ham's F-12 nutrient mix, without supplementation (Invitrogen, Waltham, MA, cat. 11765054), 100 U/mL penicillin-streptomycin (Invitrogen, cat. 15140122), and 2.5% Matrigel (Corning Inc., Corning, NY, cat. 354248) for the first three passages. The 354836-022-R-J1-PDC, 475296-252-R-J1-PDC, and 997726-040-R-J2-PDC lines were cultured in 6A media, which includes advanced DMEM/F-12 (Thermo Fisher Scientific, cat. 12634028), 10 mM HEPES (Thermo Fisher Scientific, cat. 15630080), 1X GlutaMAX supplement (Thermo Fisher Scientific, cat. 35050061), 0.1 mg/mL primocin (InvivoGen, San Diego, CA, cat. ant-pm-2), 10% defined fetal bovine serum, heat inactivated (HyClone Laboratories Inc., Logan, UT, cat. SH30070.03HI), 50% L-WRN conditioned media (ATCC, cat. CRL-3276), 1.25 mM N-Acetyl-L-cysteine (Sigma-Aldrich, cat. A9165), 10 mM nicotinamide (Sigma-Aldrich, cat. N0636), 1X B-27 supplement (Thermo Fisher Scientific, cat. 17504044), 1X N-2 supplement (Thermo Fisher Scientific, cat. 17502048), and 10 microM Y-27632 dihydrochloride (Tocris Bioscience, Bristol, United Kingdom, cat. 1254). The 624824-186-R-J2-PDC line was cultured in 6C/Colon 1B media, which includes all 6A media components plus 50 ng/mL human EGF recombinant protein (Thermo Fisher Scientific, cat. PHG0311). […]
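Further: spheroids exposed to agents for seven days before reading.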
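Wherever viability, T/C is given: percent of vehicle control luminescence where 100% = DMSO treated spheroids.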

CC(Cn1ccc(-c2ccc(C#N)c(Cl)c2)n1)NC(=O)c1cc(C(C)O)[nH]n1 (centres undefined) + CC(Nc1ccc2c(c1)OCCn1cc(N3C(=O)OCC3C(F)F)nc1-2)C(N)=O
IC50 (second compound 0.00316 µM): > 10 µM | IC50 (second compound 0.01 µM): > 10 µM | IC50 (second compound 0.0316 µM): > 10 µM | IC50 (second compound 0.1 µM): > 10 µM | IC50 (second compound 0.316 µM): > 10 µM | IC50 (second compound 1 µM): > 10 µM | viability, T/C (second compound 0.00316 µM, first compound 0.0316 µM): 99.9% | viability, T/C (second compound 0.00316 µM, first compound 0.1 µM): 97.1% | viability, T/C (second compound 0.00316 µM, first compound 0.316 µM): 92.5% | viability, T/C (second compound 0.00316 µM, first compound 1 µM): 90.1% | viability, T/C (second compound 0.00316 µM, first compound 3.16 µM): 85.7% | viability, T/C (second compound 0.00316 µM, first compound 10 µM): 68.3% | viability, T/C (second compound 0.01 µM, first compound 0.0316 µM): 92.7% | viability, T/C (second compound 0.01 µM, first compound 0.1 µM): 97.2% | viability, T/C (second compound 0.01 µM, first compound 0.316 µM): 92.9% | viability, T/C (second compound 0.01 µM, first compound 1 µM): 88.3% | viability, T/C (second compound 0.01 µM, first compound 3.16 µM): 89.9% | viability, T/C (second compound 0.01 µM, first compound 10 µM): 70.4% | viability, T/C (second compound 0.0316 µM, first compound 0.0316 µM): 97.2% | viability, T/C (second compound 0.0316 µM, first compound 0.1 µM): 98.7% | viability, T/C (second compound 0.0316 µM, first compound 0.316 µM): 95.2% | viability, T/C (second compound 0.0316 µM, first compound 1 µM): 83.5% | viability, T/C (second compound 0.0316 µM, first compound 3.16 µM): 83.8% | viability, T/C (second compound 0.0316 µM, first compound 10 µM): 75.5% | viability, T/C (second compound 0.1 µM, first compound 0.0316 µM): 106% | viability, T/C (second compound 0.1 µM, first compound 0.1 µM): 86.9% | viability, T/C (second compound 0.1 µM, first compound 0.316 µM): 85.8% | viability, T/C (second compound 0.1 µM, first compound 1 µM): 86.2% | viability, T/C (second compound 0.1 µM, first compound 3.16 µM): 84.5% | viability, T/C (second compound 0.1 µM, first compound 10 µM): 72% | viability, T/C (second compound 0.316 µM, first compound 0.0316 µM): 83.8% | viability, T/C (second compound 0.316 µM, first compound 0.1 µM): 87.5% | viability, T/C (second compound 0.316 µM, first compound 0.316 µM): 78.1% | viability, T/C (second compound 0.316 µM, first compound 1 µM): 94.2% | viability, T/C (second compound 0.316 µM, first compound 3.16 µM): 72.8% | viability, T/C (second compound 0.316 µM, first compound 10 µM): 58.2% | viability, T/C (second compound 1 µM, first compound 0.0316 µM): 73.2% | viability, T/C (second compound 1 µM, first compound 0.1 µM): 71.6% | viability, T/C (second compound 1 µM, first compound 0.316 µM): 61.5% | viability, T/C (second compound 1 µM, first compound 1 µM): 67.6% | viability, T/C (second compound 1 µM, first compound 3.16 µM): 60% | viability, T/C (second compound 1 µM, first compound 10 µM): 57.9%

Cn1cnc2c(F)c(Nc3ccc(Br)cc3Cl)c(C(=O)NOCCO)cc21 + COc1c(OCCCN2CCOCC2)ccc2c3n(c(=NC(=O)c4cnc(N)nc4)nc12)CCN3
IC50 (second compound 0.00316 µM): > 3 µM | IC50 (second compound 0.01 µM): > 3 µM | IC50 (second compound 0.0316 µM): > 3 µM | IC50 (second compound 0.1 µM): > 3 µM | IC50 (second compound 0.316 µM): < 0.00949 µM | IC50 (second compound 1 µM): < 0.00949 µM | viability, T/C (second compound 0.00316 µM, first compound 0.00949 µM): 121% | viability, T/C (second compound 0.00316 µM, first compound 0.03 µM): 82.1% | viability, T/C (second compound 0.00316 µM, first compound 0.0949 µM): 101% | viability, T/C (second compound 0.00316 µM, first compound 0.3 µM): 83.6% | viability, T/C (second compound 0.00316 µM, first compound 0.949 µM): 96.6% | viability, T/C (second compound 0.00316 µM, first compound 3 µM): 92.3% | viability, T/C (second compound 0.01 µM, first compound 0.00949 µM): 103% | viability, T/C (second compound 0.01 µM, first compound 0.03 µM): 90.2% | viability, T/C (second compound 0.01 µM, first compound 0.0949 µM): 99.2% | viability, T/C (second compound 0.01 µM, first compound 0.3 µM): 89.3% | viability, T/C (second compound 0.01 µM, first compound 0.949 µM): 90.5% | viability, T/C (second compound 0.01 µM, first compound 3 µM): 92.7% | viability, T/C (second compound 0.0316 µM, first compound 0.00949 µM): 90% | viability, T/C (second compound 0.0316 µM, first compound 0.03 µM): 93.8% | viability, T/C (second compound 0.0316 µM, first compound 0.0949 µM): 102% | viability, T/C (second compound 0.0316 µM, first compound 0.3 µM): 87% | viability, T/C (second compound 0.0316 µM, first compound 0.949 µM): 80.8% | viability, T/C (second compound 0.0316 µM, first compound 3 µM): 78.6% | viability, T/C (second compound 0.1 µM, first compound 0.00949 µM): 62.4% | viability, T/C (second compound 0.1 µM, first compound 0.03 µM): 59.3% | viability, T/C (second compound 0.1 µM, first compound 0.0949 µM): 59% | viability, T/C (second compound 0.1 µM, first compound 0.3 µM): 73.5% | viability, T/C (second compound 0.1 µM, first compound 0.949 µM): 64.4% | viability, T/C (second compound 0.1 µM, first compound 3 µM): 59.4% | viability, T/C (second compound 0.316 µM, first compound 0.00949 µM): 20.6% | viability, T/C (second compound 0.316 µM, first compound 0.03 µM): 25.5% | viability, T/C (second compound 0.316 µM, first compound 0.0949 µM): 24.7% | viability, T/C (second compound 0.316 µM, first compound 0.3 µM): 28% | viability, T/C (second compound 0.316 µM, first compound 0.949 µM): 33.7% | viability, T/C (second compound 0.316 µM, first compound 3 µM): 32.3% | viability, T/C (second compound 1 µM, first compound 0.00949 µM): 3.08% | viability, T/C (second compound 1 µM, first compound 0.03 µM): 3.98% | viability, T/C (second compound 1 µM, first compound 0.0949 µM): 2.82% | viability, T/C (second compound 1 µM, first compound 0.3 µM): 3.55% | viability, T/C (second compound 1 µM, first compound 0.949 µM): 2.39% | viability, T/C (second compound 1 µM, first compound 3 µM): 1.24%
